Data from patent publication US6528630B1 (priority 1997, dated 2003).

Assays:
α1B-1α2bβ1-2 [1] = biological target: T1, α1B-1α2bβ1-2 (Homo sapiens, UniProt Q00975); assay type: cell-based
T1 construct: A full-length α1B DNA clone was constructed by ligating portions of the partial cDNA clones; expressed in transfected cells; host or cells: HEK293 (transient)

α1B-2β1-3 = biological target: T2, α1B-2β1-3 (Homo sapiens, UniProt Q00975); assay type: binding
T2 construct: Full-length DNA clones and corresponding RNA transcripts, encoding α1, including splice variants of α1A, α1B; expressed in transfected cells; host or cells: HEK293 (transient)

α1B-2α2bβ1-3 = biological target: T3, α1B-2α2bβ1-3 (Homo sapiens, UniProt Q00975); assay type: binding
T3 construct: Full-length DNA clones and corresponding RNA transcripts, encoding α1, including splice variants of α1A, α1B; expressed in transfected cells; host or cells: HEK293 (transient)

α1B-1α2bβ1-2 [2] = biological target: T1, α1B-1α2bβ1-2; assay type: binding
α1B-1α2bβ1-3 = biological target: T4, α1B-1α2bβ1-3 (Homo sapiens, UniProt Q00975); assay type: binding
T4 construct: A full-length α1B DNA clone was constructed by ligating portions of the partial cDNA clones; expressed in transfected cells; host or cells: HEK293 (transient)

α1B-2a2bβ1-2 = biological target: T5, α1B-2a2bβ1-2 (Homo sapiens, UniProt Q00975); assay type: binding
T5 construct: Full-length DNA clones and corresponding RNA transcripts, encoding α1, including splice variants of α1A, α1B; expressed in transfected cells; host or cells: HEK293 (transient)

α1B-1β1-3 = biological target: T6, α1B-1β1-3 (Homo sapiens, UniProt Q00975); assay type: binding
T6 construct: A full-length α1B DNA clone was constructed by ligating portions of the partial cDNA clones; expressed in transfected cells; host or cells: HEK293 (transient)

α1B-2β1-2 = biological target: T7, α1B-2β1-2 (Homo sapiens, UniProt Q00975); assay type: binding
T7 construct: Full-length DNA clones and corresponding RNA transcripts, encoding α1, including splice variants of α1A, α1B; expressed in transfected cells; host or cells: HEK293 (transient)

α1B-1β1-2 = biological target: T8, α1B-1β1-2 (Homo sapiens, UniProt Q00975); assay type: binding
T8 construct: A full-length α1B DNA clone was constructed by ligating portions of the partial cDNA clones; expressed in transfected cells; host or cells: HEK293 (transient)

α1B-1α2b = biological target: T9, α1B-1α2b (Homo sapiens, UniProt Q00975); assay type: binding
T9 construct: A full-length α1B DNA clone was constructed by ligating portions of the partial cDNA clones; expressed in transfected cells; host or cells: HEK293 (transient)

[3] = test system: human neuronal calcium channel α2 and β1 subunits; test: Two-electrode voltage clamp of Xenopus oöcytes injected with α2 and β1 transcripts; conditions: Bay K 8644; n=11
[4] = test system: untransfected HEK 293 cells; test: Whole-cell patch clamp of untransfected HEK 293 cells; assay type: cell-based, human; conditions: with or without cAMP or forskolin
[5] = biological target: T10, α1B-1, α2b, and β1-2 subunits (Homo sapiens, UniProt Q00975); assay type: binding
T10 construct: A full-length α1B DNA clone was constructed by ligating portions of the partial cDNA clones; expressed in transfected cells; host or cells: HEK293 (transient)

T1 sequence (Q00975 whole entry, looked up): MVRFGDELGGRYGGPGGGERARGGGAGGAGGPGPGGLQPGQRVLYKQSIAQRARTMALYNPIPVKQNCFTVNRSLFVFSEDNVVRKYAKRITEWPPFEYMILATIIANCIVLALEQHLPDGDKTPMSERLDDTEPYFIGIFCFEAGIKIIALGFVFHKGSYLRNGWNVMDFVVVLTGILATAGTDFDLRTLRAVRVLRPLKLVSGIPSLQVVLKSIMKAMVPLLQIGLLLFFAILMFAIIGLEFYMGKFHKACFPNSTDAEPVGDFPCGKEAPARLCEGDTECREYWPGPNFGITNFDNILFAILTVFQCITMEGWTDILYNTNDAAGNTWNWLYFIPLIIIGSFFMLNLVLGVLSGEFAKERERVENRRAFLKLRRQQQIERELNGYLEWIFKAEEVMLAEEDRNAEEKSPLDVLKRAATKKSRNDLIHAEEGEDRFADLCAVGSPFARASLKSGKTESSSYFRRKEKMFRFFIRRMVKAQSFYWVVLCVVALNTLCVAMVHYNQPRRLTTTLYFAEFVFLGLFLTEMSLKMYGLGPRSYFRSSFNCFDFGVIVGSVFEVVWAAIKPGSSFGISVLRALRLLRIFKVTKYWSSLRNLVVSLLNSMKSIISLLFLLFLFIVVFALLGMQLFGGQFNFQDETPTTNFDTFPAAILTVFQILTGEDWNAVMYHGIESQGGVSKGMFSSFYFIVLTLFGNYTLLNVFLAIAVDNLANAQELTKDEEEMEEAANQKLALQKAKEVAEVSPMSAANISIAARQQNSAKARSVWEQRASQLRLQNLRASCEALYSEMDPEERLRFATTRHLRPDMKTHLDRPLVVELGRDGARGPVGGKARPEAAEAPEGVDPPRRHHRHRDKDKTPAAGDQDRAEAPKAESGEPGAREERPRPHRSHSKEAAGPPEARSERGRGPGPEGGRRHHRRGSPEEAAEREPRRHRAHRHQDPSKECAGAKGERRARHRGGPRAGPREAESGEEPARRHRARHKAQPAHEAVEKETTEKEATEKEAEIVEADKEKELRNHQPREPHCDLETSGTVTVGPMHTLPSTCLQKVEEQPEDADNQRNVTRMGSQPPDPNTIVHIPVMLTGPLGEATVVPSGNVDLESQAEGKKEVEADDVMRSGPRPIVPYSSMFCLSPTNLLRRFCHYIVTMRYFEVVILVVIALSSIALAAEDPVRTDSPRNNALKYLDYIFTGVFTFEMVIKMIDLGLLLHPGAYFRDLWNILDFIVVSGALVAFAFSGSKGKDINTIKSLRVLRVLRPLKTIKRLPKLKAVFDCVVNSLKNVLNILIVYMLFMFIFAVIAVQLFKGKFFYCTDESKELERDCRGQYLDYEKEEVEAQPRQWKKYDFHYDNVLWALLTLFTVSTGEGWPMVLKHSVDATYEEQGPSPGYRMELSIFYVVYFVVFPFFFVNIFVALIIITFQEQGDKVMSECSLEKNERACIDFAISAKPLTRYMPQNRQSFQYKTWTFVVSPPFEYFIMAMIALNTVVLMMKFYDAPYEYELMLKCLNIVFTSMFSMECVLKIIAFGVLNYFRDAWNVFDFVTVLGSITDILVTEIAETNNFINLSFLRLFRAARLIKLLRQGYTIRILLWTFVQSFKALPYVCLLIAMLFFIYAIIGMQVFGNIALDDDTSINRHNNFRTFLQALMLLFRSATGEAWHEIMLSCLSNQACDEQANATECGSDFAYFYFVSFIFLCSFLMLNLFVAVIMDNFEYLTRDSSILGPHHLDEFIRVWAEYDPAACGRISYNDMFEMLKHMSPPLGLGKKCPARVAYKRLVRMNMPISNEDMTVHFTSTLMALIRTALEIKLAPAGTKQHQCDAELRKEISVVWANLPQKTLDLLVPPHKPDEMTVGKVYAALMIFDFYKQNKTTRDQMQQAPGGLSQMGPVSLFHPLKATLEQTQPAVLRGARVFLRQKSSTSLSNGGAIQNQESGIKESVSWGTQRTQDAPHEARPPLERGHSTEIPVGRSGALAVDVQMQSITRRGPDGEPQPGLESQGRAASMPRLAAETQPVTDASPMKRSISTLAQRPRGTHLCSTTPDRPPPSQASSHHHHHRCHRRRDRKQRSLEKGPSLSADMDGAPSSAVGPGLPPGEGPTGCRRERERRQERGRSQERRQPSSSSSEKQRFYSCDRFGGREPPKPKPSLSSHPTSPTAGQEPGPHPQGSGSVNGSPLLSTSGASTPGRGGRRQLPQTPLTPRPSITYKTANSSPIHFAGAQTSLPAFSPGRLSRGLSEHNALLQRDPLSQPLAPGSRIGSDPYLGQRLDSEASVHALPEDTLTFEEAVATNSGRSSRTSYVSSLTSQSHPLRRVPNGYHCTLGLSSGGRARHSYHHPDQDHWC
T3 sequence (Q00975 1-2237 isoform Q00975-2): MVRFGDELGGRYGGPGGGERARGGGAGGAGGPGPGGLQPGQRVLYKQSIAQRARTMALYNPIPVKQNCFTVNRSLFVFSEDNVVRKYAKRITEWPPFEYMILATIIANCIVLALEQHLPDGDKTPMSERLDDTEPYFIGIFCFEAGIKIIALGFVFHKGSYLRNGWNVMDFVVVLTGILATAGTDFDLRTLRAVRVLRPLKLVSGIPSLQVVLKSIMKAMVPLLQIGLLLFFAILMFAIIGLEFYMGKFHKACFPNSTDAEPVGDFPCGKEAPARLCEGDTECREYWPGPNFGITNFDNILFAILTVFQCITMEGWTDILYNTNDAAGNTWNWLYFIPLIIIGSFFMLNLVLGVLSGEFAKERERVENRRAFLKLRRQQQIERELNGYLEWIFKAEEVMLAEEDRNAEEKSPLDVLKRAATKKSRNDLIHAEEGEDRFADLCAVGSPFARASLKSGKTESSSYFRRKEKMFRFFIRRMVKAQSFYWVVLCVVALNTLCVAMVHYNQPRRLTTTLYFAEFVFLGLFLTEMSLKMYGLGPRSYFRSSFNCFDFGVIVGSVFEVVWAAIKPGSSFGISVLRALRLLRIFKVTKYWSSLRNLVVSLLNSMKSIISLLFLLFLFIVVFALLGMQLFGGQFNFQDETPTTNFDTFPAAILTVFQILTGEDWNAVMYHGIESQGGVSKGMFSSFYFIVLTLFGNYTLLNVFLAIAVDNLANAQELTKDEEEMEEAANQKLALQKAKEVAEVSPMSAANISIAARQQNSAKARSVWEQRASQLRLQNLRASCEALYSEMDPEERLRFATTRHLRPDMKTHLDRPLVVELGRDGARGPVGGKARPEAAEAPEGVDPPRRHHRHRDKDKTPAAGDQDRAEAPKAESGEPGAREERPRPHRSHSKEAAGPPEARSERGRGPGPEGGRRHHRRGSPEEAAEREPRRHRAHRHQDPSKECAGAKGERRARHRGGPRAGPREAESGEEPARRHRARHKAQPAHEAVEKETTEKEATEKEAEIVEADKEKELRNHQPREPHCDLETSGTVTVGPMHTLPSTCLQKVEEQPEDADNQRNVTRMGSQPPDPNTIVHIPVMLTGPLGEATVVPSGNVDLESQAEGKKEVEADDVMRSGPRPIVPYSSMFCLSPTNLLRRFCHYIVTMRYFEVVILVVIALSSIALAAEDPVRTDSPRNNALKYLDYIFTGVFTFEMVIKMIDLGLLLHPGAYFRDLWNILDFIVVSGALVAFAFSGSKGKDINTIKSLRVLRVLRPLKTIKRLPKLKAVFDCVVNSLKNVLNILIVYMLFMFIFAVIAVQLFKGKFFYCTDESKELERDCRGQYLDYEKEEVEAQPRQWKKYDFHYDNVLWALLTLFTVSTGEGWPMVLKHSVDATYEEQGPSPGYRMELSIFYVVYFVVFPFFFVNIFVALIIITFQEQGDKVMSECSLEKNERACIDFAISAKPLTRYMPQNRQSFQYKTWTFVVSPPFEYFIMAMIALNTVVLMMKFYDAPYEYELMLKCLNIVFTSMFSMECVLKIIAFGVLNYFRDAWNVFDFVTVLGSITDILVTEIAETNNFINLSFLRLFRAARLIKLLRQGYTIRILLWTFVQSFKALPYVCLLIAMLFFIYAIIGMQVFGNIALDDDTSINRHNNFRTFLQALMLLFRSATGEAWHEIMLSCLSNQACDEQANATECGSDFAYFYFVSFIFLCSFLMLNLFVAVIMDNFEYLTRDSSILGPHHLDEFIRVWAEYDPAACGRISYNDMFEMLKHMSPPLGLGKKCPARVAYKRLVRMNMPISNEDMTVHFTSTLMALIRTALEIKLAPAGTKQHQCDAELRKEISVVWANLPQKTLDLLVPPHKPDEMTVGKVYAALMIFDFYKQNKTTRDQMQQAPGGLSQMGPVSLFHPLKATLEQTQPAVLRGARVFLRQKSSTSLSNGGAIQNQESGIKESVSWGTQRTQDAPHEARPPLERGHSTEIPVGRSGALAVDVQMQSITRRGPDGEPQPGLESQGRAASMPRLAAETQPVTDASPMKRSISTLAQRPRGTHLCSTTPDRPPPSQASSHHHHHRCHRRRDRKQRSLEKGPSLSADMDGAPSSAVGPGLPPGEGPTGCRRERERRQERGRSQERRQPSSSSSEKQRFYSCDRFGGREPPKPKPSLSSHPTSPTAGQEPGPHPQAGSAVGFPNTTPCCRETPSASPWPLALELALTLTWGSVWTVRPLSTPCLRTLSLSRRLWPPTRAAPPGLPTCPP
T5 sequence (Q00975 1-2237 isoform Q00975-2): as above
T7 sequence (Q00975 1-2237 isoform Q00975-2): as above
T7 sequence (Q02641 1-478 isoform Q02641-3 partner): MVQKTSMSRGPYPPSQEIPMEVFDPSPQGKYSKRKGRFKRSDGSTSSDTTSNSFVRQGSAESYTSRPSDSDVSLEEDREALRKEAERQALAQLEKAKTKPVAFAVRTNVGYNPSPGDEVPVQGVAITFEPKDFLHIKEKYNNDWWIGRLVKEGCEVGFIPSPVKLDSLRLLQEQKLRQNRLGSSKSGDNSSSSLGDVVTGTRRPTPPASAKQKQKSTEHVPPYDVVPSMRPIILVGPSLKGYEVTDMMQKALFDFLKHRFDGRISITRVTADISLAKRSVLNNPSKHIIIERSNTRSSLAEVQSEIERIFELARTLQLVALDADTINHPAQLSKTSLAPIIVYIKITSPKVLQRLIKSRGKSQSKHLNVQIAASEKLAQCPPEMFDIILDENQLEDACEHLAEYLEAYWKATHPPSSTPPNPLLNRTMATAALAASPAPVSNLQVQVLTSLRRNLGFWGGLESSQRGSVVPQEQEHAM

## [Cd] [cadmium]
α1B-1α2bβ1-2 [1]; 50 μM
  blockage: rapid, complete, and reversible

## C[C@@H](O)[C@@H]1NC(=O)[C@H](Cc2ccc(O)cc2)NC(=O)[C@@H]2C[C@@H](O)CN2C(=O)[C@H](CC(N)=O)NC(=O)[C@@H]2CSSC[C@@H]3NC(=O)[C@H](CO)NC(=O)[C@H](CO)NC(=O)CNC(=O)[C@@H]4C[C@@H](O)CN4C(=O)[C@H](CO)NC(=O)[C@H](CCCCN)NC(=O)[C@@H](N)CSSC[C@H](NC(=O)[C@H](CSSC[C@@H](C(=O)N[C@@H](Cc4ccc(O)cc4)C(N)=O)NC(=O)[C@H](CCCNC(=N)N)NC(=O)[C@H](CCCCN)NC1=O)NC(=O)[C@H](CC(N)=O)NC(=O)[C@H](Cc1ccc(O)cc1)NC(=O)[C@H](CO)NC(=O)[C@H]([C@@H](C)O)NC(=O)[C@@H]1C[C@@H](O)CN1C(=O)[C@H](CO)NC3=O)C(=O)N[C@@H](CCCNC(=N)N)C(=O)N[C@@H](CO)C(=O)N2 [^125I-ω-CgTx GVIA]
α1B-2β1-3
  Bmax (sites/cell): 2,944 ± 1,168 sites/cell
α1B-2α2bβ1-3
  Bmax (sites/cell): 37,652 ± 8,129 sites/cell
α1B-1α2bβ1-2 [2]
  Bmax (sites/cell): 45,324 ± 15,606 sites/cell
α1B-1α2bβ1-3
  Bmax (sites/cell): 91,004 ± 37,654 sites/cell
α1B-2a2bβ1-2
  Bmax (sites/cell): 19,371 ± 3,798 sites/cell
α1B-1β1-3
  Bmax (sites/cell): 8,729 ± 2,980 sites/cell
α1B-2β1-2
  Bmax (sites/cell): 2,126 ± 412 sites/cell
α1B-1β1-2
  Bmax (sites/cell): 5,756 ± 2,163 sites/cell
α1B-1α2b
  Bmax (sites/cell): 2,256 ± 356 sites/cell

## COC(=O)C1=C(C)NC(C)=C([N+](=O)[O-])C1c1ccccc1C(F)(F)F (centres unmarked) [Bay K 8644]
[3]
  sensitivity of inward barium currents: insensitive
[4]
  effects of Bay K 8644 (current magnitude, tail currents, activation voltage): No such effects
α1B-1α2bβ1-2 [1]; 1 μM, n=4
  effect on channel activity: no discernable effect

## C[C@@H](O)[C@@H]1NC(=O)[C@H](Cc2ccc(O)cc2)NC(=O)[C@@H]2C[C@@H](O)CN2C(=O)[C@H](CC(N)=O)NC(=O)[C@@H]2CSSC[C@@H]3NC(=O)[C@H](CO)NC(=O)[C@H](CO)NC(=O)CNC(=O)[C@@H]4C[C@@H](O)CN4C(=O)[C@H](CO)NC(=O)[C@H](CCCCN)NC(=O)[C@@H](N)CSSC[C@H](NC(=O)[C@H](CSSC[C@@H](C(=O)N[C@@H](Cc4ccc(O)cc4)C(N)=O)NC(=O)[C@H](CCCNC(=N)N)NC(=O)[C@H](CCCCN)NC1=O)NC(=O)[C@H](CC(N)=O)NC(=O)[C@H](Cc1ccc(O)cc1)NC(=O)[C@H](CO)NC(=O)[C@H]([C@@H](C)O)NC(=O)[C@@H]1C[C@@H](O)CN1C(=O)[C@H](CO)NC3=O)C(=O)N[C@@H](CCCNC(=N)N)C(=O)N[C@@H](CO)C(=O)N2 [ω-CgTX]
[5]
  binding capacity (Bmax): 28,710±11,950 sites per cell
α1B-1α2bβ1-2 [1]
  block of activity: blocked the activity completely
  block of channels: blocked irreversibly
  time to complete block: ≤ 2 min
